# Source: publication PMC7352571, “New Anti-Cancer Strategy to Suppress Colorectal Cancer Growth Through Inhibition of ATG4B and Lysosome Function” (Cancers, 2020)
# Experiments:
# LC3-II in HeLa cells = assay: western blot for LC3 conversion, HeLa; format: cell-based; details: 1, 5, 10, 20 µM for 6 h; 10 µM time course
# Description: (§1) Figure S2. 163N could inhibit autophagy flux. (A) HeLa cells treated with different concentrations of
# (§2) II/TUBA was calculated using ImageJ software.
# (§3) was examined. The number of GFP-LC3B dots was quantified. Data are presented as mean ± SEM
# (§4) was performed to assess cell viability. […]
# [1] = test system: lysosomal membrane permeabilization in HeLa cells; assay: immunostaining, colocalization of cathepsin B and LAMP1; format: cell-based; details: 10 µM, 6 h
# Description: (§5) Figure 5 163N causes lysosome dysfunction. […] (C) HeLa cells were treated with or without 163N (10 µM) for 6 h, followed by immunostaining using cathepsin B and LAMP1 antibody. The colocalization of cathepsin B and LAMP1 was measured.
# (§6) Immunostaining assay was performed as described previously. Cells were fixed in 4% paraformaldehyde for 15–20 min followed by permeabilization with 0.1% Triton X-100 for another 15 min. Then, PBS containing 5% bovine serum albumin was used for blocking. Primary antibodies (1:150) was used at 4° for one night and then secondary antibodies (1:500) were applied at room temperature for 1 h. EVOS FL Auto (Life Technologies) was used to get the fluorescence images. At least three optical fields with at least 100 cells were analyzed for quantification.
# L02 cells = assay: CCK-8 cell viability assay, normal cells L02; format: cell-based; details: at a higher concentration (40 µM), 48 h
# Description: (§7) Cells were seeded and incubated overnight in 96-well plates at a density of 5 × 10^3 cells/well. […] A total of 10 µL CCK-8 were added to each well for additional 1 h and cell viability was measured by CCK-8 assay. Absorbance was measured at 450 nm. The IC50 values were calculated by GraphPad Prism 7 (GraphPad Software Inc., San Diego, CA, USA).
# as §1, §2, §3, §4
# MDA-MB-231 cells = assay: CCK-8 cell viability assay, MDA-MB-231; format: cell-based; details: Homo sapiens, CCK-8 assay, 48 h
# Description: as §7
# HCT116 cells [2] = assay: real-time cellular analysis (RTCA); format: cell-based, Human; details: 2 µM, wild type HCT116
# Description: An E-Plate 16 (ACEA Biosciences, Hangzhou, China) was prepared with 50 µL of DMEM medium added to each well to do a background measurement in the xCELLigence instrument (ACEA Biosciences, China). 100 µL of passaged cell suspensions containing 2.5 × 10^3 cells were added to each well and then cells were settled on the base of the well for 30 min at room temperature. The plate was inserted into the RTCA system (housed within the incubator) and cell index (CI) values were assessed every 5 min over the following 72 h. After 24 h of cell seeding, the assay was paused and 2 µM 163N was added to each well. Then, the plate was placed in the station again and the analysis was restarted. After completing a total of 72 h of analysis, the data were analyzed with GraphPad 7.0 software.
# [3] = test system: proteolytic activity of lysosomes in HeLa cells; assay: DQ-BSA Red assay; format: cell-based; details: 6 h, 163N 5 or 10 µM, Baf 0.5 µM, E64D 25 µM plus pepstatin A 50 µM
# Description: Figure 5 163N causes lysosome dysfunction. […] . (C) HeLa cells were treated with or without 163N (10 µM) for 6 h, followed by immunostaining using cathepsin B and LAMP1 antibody. The colocalization of cathepsin B and LAMP1 was measured.
# DQ-BSA Red assay: cells were incubated with 10 µg/mL DQ-BSA Red in EBSS medium at 37° for 1.5 h, and then new medium with or without the indicated compounds were added for another 4 or 6 h, and then fluorescence microscopy was used for detecting the intensity of red fluorescent.
# Supplementary Materials: New Anti-Cancer Strategy
# to Suppress Colorectal Cancer Growth Through
# Inhibition of ATG4B and Lysosome Function
# Figure S1. Compounds with a 6-methylpyrimidine-2,4-diamine structure could cause lysosome
# inhibition. (A) The structure of the representative lysosome inhibitors. (B) GFP-LC3B HeLa cells were
# treated with Baf (0.5 µM) or 5 µM of different lysosome inhibitors for 2 h, then LysoTracker Red (LTR,
# 25 ng/mL) was used and the relative LTR fluorescent intensity was measured. (C) HeLa cells were
# firstly treated with 10 µg/mL DQ-BSA for 1.5 h, and then treated with Rap (1 µM), Baf (0.5 µM), E64D
# (25 µM) plus pepstatin A (50 µM), or 5 µM of different lysosome inhibitors for 4 h.
# Cancers 2020, 12, x; www.mdpi.com/journal/ cancers […]
# [4] = test system: LC3B and LAMP1 in HeLa cells; assay: immunostaining, colocalization of LC3B and LAMP1; format: cell-based; details: 10 µM, 6 h
# Description: Figure 4 163N increases the accumulation of autolysosomes. (A) HEK293A cells expressing green fluorescent protein (GFP)-red fluorescent protein (RFP)-LC3 were treated with 163N (10 µM), rapamycin (Rap) (1 µM) or Baf (0.5 µM) for 6 h, then the colocalization of GFP and RFP puncta was detected. […] The colocalization of LC3B and LAMP1 was measured. […] Red arrows indicate normal autolysosome structures. (D) ATG4BKO HeLa cells expressing GFP-LC3[G120] or full length GFP-LC3 were treated with Rap (1 µM), 163N (10 µM), or CQ (40 µM) for 6 h, then the distribution of GFP-LC3 was examined. And the number of GFP-LC3 dots were quantified.
# as §6
# HCT116 cells [5] = assay: CCK-8 cell viability assay, HCT116; format: cell-based, Human
# Description: as §7
# ATG4A = ATG4A (Homo sapiens, UniProt Q8WYN0); assay: FRET-based assay for ATG4A activity
# Sequence of ATG4A (Q8WYN0 whole entry, species assumed): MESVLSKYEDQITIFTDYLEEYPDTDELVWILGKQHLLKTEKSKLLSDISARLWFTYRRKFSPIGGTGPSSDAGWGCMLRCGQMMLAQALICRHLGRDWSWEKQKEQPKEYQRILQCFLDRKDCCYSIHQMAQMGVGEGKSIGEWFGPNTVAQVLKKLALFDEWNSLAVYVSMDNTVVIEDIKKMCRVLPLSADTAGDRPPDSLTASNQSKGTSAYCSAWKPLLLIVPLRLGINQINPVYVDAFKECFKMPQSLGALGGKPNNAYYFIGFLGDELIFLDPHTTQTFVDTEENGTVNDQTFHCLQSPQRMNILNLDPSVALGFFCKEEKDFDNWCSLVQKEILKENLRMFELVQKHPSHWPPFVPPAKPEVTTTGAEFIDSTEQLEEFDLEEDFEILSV
# Description: A FRET-based assay for detecting ATG4B activity was carried out as described [45].
# SQSTM1 in HeLa cells = assay: immunostaining of SQSTM1 dots; details: 10 µM, 6 h
# [6] = test system: lysosome acidity in HeLa cells; assay: LysoTracker Red (LTR) assay, HeLa; format: cell-based; details: 6 h, 163N 5 or 10 µM, Rap 1 µM, E64D 25 µM plus pepstatin A 50 µM
# Description: as §5
# LTR assay: cells were incubated with LTR (25 nM) in HBSS medium at 37° for 30 min, and then fluorescence microscopy was used for detecting fluorescence intensity.
# HCT116 cells [7] = assay: wound healing assay; format: cell-based, Human; details: 10 µM, 48 h
# Description: Cells were seeded in 12-well plates. After the cells grew to confluence, wounds were made by sterile pipette tips. The cells were photographed at the beginning of wound formation. […] The distance of cell migration was calculated from three independent experiments.
# HeLa cells = assay: CCK-8 cell viability assay, HeLa; format: cell-based
# Description: as §7
# KYSE150 cells = assay: CCK-8 cell viability assay, KYSE150; format: cell-based; details: Homo sapiens, KYSE-150; CCK-8 assay, 48 h
# Description: as §7
# HL60 cells = assay: CCK-8 cell viability assay, HL60; format: cell-based; details: Homo sapiens, HL-60; CCK-8 assay
# Description: as §7
structure (smiles),measurement,setting,value
COc1ccc(Nc2cc(C)nc(Nc3ccc(-c4cc5ccccc5o4)cc3)n2)cc1 [Compound 163N],"LC3-II level, HeLa",LC3-II in HeLa cells,dose- and time-dependent accumulation of LC3-II
same,lysosomal membrane permeabilization (cathepsin B/LAMP1 colocalization),[1],did not produce lysosomal membrane permeabilization
same,cell viability of normal cells L02,L02 cells,reduce the cell viability
same,IC50,MDA-MB-231 cells,9.99 µM
same,cytotoxic effect in RTCA,HCT116 cells [2],significant cytotoxic effects
same,dequenching of DQ-BSA (proteolytic activity of lysosome),[3],nearly no dequenching of DQ-BSA
same,LC3 puncta and co-localization with LAMP1,[4],"remarkable increase of LC3 puncta, which were well co-localized with LAMP1"
same,"cytotoxicity relative to XOS00163, XOS00201 and XOS00207, HCT116",HCT116 cells [5]; HCT116 cells,about five times higher cytotoxicity
same,IC50,"HCT116 cells [5]; Homo sapiens, HCT-116, CCK-8 assay, 48 h",5.76 µM
same,IC50,ATG4A,53.7 µM
same,degradation of autophagic substrate SQSTM1,SQSTM1 in HeLa cells,significantly attenuated the degradation of the autophagic substrate SQSTM1
same,LTR red fluorescence / acidic vesicles,[6],significant reduction in acidic vesicles
same,migration of wild type HCT116 cells,HCT116 cells [7],significantly inhibited the migration
same,"cytotoxicity relative to XOS00163, XOS00201 and XOS00207, HeLa",HeLa cells; HeLa cells,about five times higher cytotoxicity
same,IC50,"HeLa cells; Homo sapiens, HeLa, CCK-8 assay, 48 h",7.06 µM
same,IC50,KYSE150 cells,13 µM
same,IC50,HL60 cells,12.6 µM
